Data as given in patent US20230087342A1, “AZEPANE DERIVATIVE” (Nippon Chemiphar Co., Ltd., priority 2019, published 2023).

Each compound was assayed against T1, human κ opioid receptors (Homo sapiens, UniProt P41145) (assay: Opioid receptor function test (Lance Ultra cAMP kit, agonist activity)). Details: CHO cells expressing human κ opioid receptors, 10 μM forskolin, 30 minutes.
T1 construct: host or cells: CHO cells
Assay type: cell-based
Protocol: Opioid Receptor Function Test
The function activity of the compound of the present invention on κ opioid receptors was examined.
Method: Using a Lance Ultra cAMP kit (Perkin Elmer), the examination was performed according to a predetermined method. In evaluation of agonist activity, CHO cells expressing human κ opioid receptors (Catalog No. CT6606, accession No. NM_000912) and a test compound were reacted in an assay buffer (1×HSS, 5 mM HEPES, pH 7.4, 0.5 mM IBMX (isobutylmethyixanthine), 0.1% SA) in the presence of 10 μM forskolin for 30 minutes. Subsequently, a cAMP detection reagent in the kit was added. One hour later, time-resolved fluorescence measurement was performed using an EnVision plate reader (Perkin Elmer). The evaluation of the test compound was performed in a concentration range of 10^−14 to 10^−7 M for the κ opioid receptor function test.

T1 sequence (P41145 whole entry): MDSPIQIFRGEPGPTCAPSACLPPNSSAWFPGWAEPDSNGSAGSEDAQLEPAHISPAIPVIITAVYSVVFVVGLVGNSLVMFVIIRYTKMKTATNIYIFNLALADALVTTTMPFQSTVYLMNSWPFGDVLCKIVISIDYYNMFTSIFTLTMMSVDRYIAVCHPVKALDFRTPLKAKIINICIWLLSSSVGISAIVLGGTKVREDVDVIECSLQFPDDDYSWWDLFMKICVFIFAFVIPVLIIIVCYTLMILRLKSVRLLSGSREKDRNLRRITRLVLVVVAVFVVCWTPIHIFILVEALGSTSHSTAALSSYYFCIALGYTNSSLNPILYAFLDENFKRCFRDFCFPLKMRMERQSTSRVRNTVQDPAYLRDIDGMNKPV

SMILES	EC50 [nM]
O=C(Cc1n[nH]c2ccccc12)N1CC[C@]23CCN(CC4CC4)[C@H](Cc4ccc(O)cc42)[C@]3(O)CC1 [Example 114, 1-((5aS,6R,11bR)-14-(cyclopropylmethyl)-5a,10-dihydroxy-1,2,5,5a,6,7-hexahydro-6,11b-(epiminoethano)naphtho[1,2-d]azepin-3(4H)-yl)-2-(1H-indazol-3-yl)ethan-1-one]	0.043
O=C(Cc1cn2ccccc2n1)N1CC[C@]23CCN(CC4CC4)[C@H](Cc4ccc(O)cc42)[C@]3(O)CC1 [Example 115, 1-((5aS,6R,11bR)-14-(cyclopropylmethyl)-5a,10-dihydroxy-1,2,5,5a,6,7-hexahydro-6,11b-(epiminoethano)naphtho[1,2-d]azepin-3(4H)-yl)-2-(imidazo[1,2-a]pyridin-2-yl)ethan-1-one]	0.15
Oc1ccc2c(c1)[C@@]13CCN(CCc4cn5ccccc5n4)CC[C@@]1(O)[C@@H](C2)N(CC1CC1)CC3 [Example 116, (5aS,6R,11bS)-14-(cyclopropylmethyl)-3-(2-(imidazo[1,2-a]pyridin-2-yl)ethyl)-2,3,4,5,6,7-hexahydro-6,11b-(epiminoethano)naphtho[1,2-d]azepine-5a,10(1H)-diol]	0.021
O=C(Cc1cc2ccccn2n1)N1CC[C@]23CCN(CC4CC4)[C@H](Cc4ccc(O)cc42)[C@]3(O)CC1 [Example 117, 1-((5aS,6R,11bR)-14-(cyclopropylmethyl)-5a,10-dihydroxy-1,2,5,5a,6,7-hexahydro-6,11b-(epiminoethano)naphtho[1,2-d]azepin-3(4H)-yl)-2-(pyrazolo[1,5-a]pyridin-2-yl)ethan-1-one]	0.4
Oc1ccc2c(c1)[C@@]13CCN(CCc4cc5ccccn5n4)CC[C@@]1(O)[C@@H](C2)N(CC1CC1)CC3 [Example 118, (5aS,6R,11bS)-14-(cyclopropylmethyl)-3-(2-(pyrazolo[1,5-a]pyridin-2-yl)ethyl)-2,3,4,5,6,7-hexahydro-6,11b-(epiminoethano)naphtho[1,2-d]azepine-5a,10(1H)-diol]	0.016
Oc1ccc2c(c1)[C@@]13CCN(CCn4cc5ccccc5n4)CC[C@@]1(O)[C@@H](C2)N(CC1CC1)CC3 [Example 120, (5aS,6R,11bS)-3-(2-(2H-indazol-2-yl)ethyl)-14-(cyclopropylmethyl)-2,3,4,5,6,7-hexahydro-6,11b-(epiminoethano)naphtho[1,2-d]azepine-5a,10(1H)-diol]	0.053
Oc1ccc2c(c1)[C@@]13CCN(CCn4ncc5ccccc54)CC[C@@]1(O)[C@@H](C2)N(CC1CC1)CC3 [Example 122, (5aS,6R,11bS)-3-(2-(1H-indazol-1-yl)ethyl)-14-(cyclopropylmethyl)-2,3,4,5,6,7-hexahydro-6,11b-(epiminoethano)naphtho[1,2-d]azepine-5a,10(1H)-diol]	0.15
Oc1ccc2c(c1)[C@@]13CCN(CCc4cc5ccccc5cn4)CC[C@@]1(O)[C@@H](C2)N(CC1CC1)CC3 [Example 123, (5aS,6R,11bS)-14-(cyclopropylmethyl)-3-(2-(isoquinolin-3-yl)ethyl)-2,3,4,5,6,7-hexahydro-6,11b-(epiminoethano)naphtho[1,2-d]azepine-5a,10(1H)-diol]	0.064
Oc1ccc2c(c1)[C@@]13CCN(CCN4CCc5ccccc54)CC[C@@]1(O)[C@@H](C2)N(CC1CC1)CC3 [Example 126, (5aS,6R,11bS)-14-(cyclopropylmethyl)-3-(2-(indolin-1-yl)ethyl)-2,3,4,5,6,7-hexahydro-6,11b-(epiminoethano)naphtho[1,2-d]azepine-5a,10(1H)-diol]	0.74
Oc1ccc2c(c1)[C@@]13CCN(CCc4nc5ccccc5s4)CC[C@@]1(O)[C@@H](C2)N(CC1CC1)CC3 [Example 128, (5aS,6R,11bS)-3-(2-(benzo[d]thiazol-2-yl)ethyl)-14-(cyclopropylmethyl)-2,3,4,5,6,7-hexahydro-6,11b-(epiminoethano)naphtho[1,2-d]azepine-5a,10(1H)-diol]	0.1
Oc1ccc2c(c1)[C@@]13CCN(CCN4CCCCC4)CC[C@@]1(O)[C@@H](C2)N(CC1CC1)CC3 [Example 130, (5aS,6R,11bS)-14-(cyclopropylmethyl)-3-(2-(piperidin-1-yl)ethyl)-2,3,4,5,6,7-hexahydro-6,11b-(epiminoethano)naphtho[1,2-d]azepine-5a,10(1H)-diol]	0.36
C[Si]1(C)CCN(CC(=O)N2CC[C@]34CCN(CC5CC5)[C@H](Cc5ccc(O)cc53)[C@]4(O)CC2)CC1 [Example 132, 1-((5aS,6R,11bR)-14-(cyclopropylmethyl)-5a,10-dihydroxy-1,2,5,5a,6,7-hexahydro-6,11b-(epiminoethano)naphtho[1,2-d]azepin-3(4H)-yl)-2-(4,4-dimethyl-1,4-azasilinan-1-yl)ethan-1-one]	0.16
C[Si]1(C)CCN(CCN2CC[C@]34CCN(CC5CC5)[C@H](Cc5ccc(O)cc53)[C@]4(O)CC2)CC1 [Example 133, (5aS,6R,11bS)-14-(cyclopropylmethyl)-3-(2-(4,4-dimethyl-1,4-azasilinan-1-yl)ethyl)-2,3,4,5,6,7-hexahydro-6,11b-(epiminoethano)naphtho[1,2-d]azepine-5a,10(1H)-diol]	0.033
Oc1ccc2c(c1)[C@]13CCN(CC4CC4)[C@H](C2)[C@]1(O)CCCN(CCc1ccccn1)C3 [Example 137, (5aS,6R,11bS)-14-(cyclopropylmethyl)-2-(2-(pyridin-2-yl)ethyl)-2,3,4,5,6,7-hexahydro-6,11b-(epiminoethano)naphtho[1,2-c]azepine-5a,10(1H)-diol]	0.14
O=C(Cn1cc(C(F)(F)F)cn1)N1CC[C@]23CCN(CC4CC4)[C@H](Cc4ccc(O)cc42)[C@]3(O)CC1 [Example 143, 1-((5aS,6R,11bR)-14-(cyclopropylmethyl)-5a,10-dihydroxy-1,2,5,5a,6,7-hexahydro-6,11b-(epiminoethano)naphtho[1,2-d]azepin-3(4H)-yl)-2-(4-(trifluoromethyl)-1H-pyrazol-1-yl)ethan-1-one]	0.033
Oc1ccc2c(c1)[C@@]13CCN(CCn4cc(C(F)(F)F)cn4)CC[C@@]1(O)[C@@H](C2)N(CC1CC1)CC3 [Example 144, (5aS,6R,11bS)-14-(cyclopropylmethyl)-3-(2-(4-(trifluoromethyl)-1H-pyrazol-1-yl)ethyl)-2,3,4,5,6,7-hexahydro-6,11b-(epiminoethano)naphtho[1,2-d]azepine-5a,10(1H)-diol]	0.019
CC(C)(C)c1cnn(CCN2CC[C@]34CCN(CC5CC5)[C@H](Cc5ccc(O)cc53)[C@]4(O)CC2)c1 [Example 149, (5aS,6R,11bS)-3-(2-(4-(tert-butyl)-1H-pyrazol-1-yl)ethyl)-14-(cyclopropylmethyl)-2,3,4,5,6,7-hexahydro-6,11b-(epiminoethano)naphtho[1,2-d]azepine-5a,10(1H)-diol]	0.023
CCCN1CC[C@]23CCN(CCc4ccccn4)CC[C@@]2(O)[C@H]1Cc1ccc(O)cc13 [Example 159, (5aS,6R,11bS)-14-propyl-3-(2-(pyridin-2-yl)ethyl)-2,3,4,5,6,7-hexahydro-6,11b-(epiminoethano)naphtho[1,2-d]azepine-5a,10(1H)-diol]	0.77
O=C(Cn1cc(C2CC2)cn1)N1CC[C@]23CCN(CC4CC4)[C@H](Cc4ccc(O)cc42)[C@]3(O)CC1 [Example 160, 2-(4-cyclopropyl-1H-pyrazol-1-yl)-1-((5aS,6R,11bR)-14-(cyclopropylmethyl)-5a,10-dihydroxy-1,2,5,5a,6,7-hexahydro-6,11b-(epiminoethano)naphtho[1,2-d]azepin-3(4H)-yl)ethan-1-one]	0.045
Oc1ccc2c(c1)[C@@]13CCN(CCc4ccccn4)CC[C@@]1(O)[C@@H](C2)N(CC1CCC1)CC3 [Example 162, (5aS,6R,11bS)-14-(cyclobutylmethyl)-3-(2-(pyridin-2-yl)ethyl)-2,3,4,5,6,7-hexahydro-6,11b-(epiminoethano)naphtho[1,2-d]azepine-5a,10(1H)-diol]	0.39
Cc1cn(CC(=O)N2CC[C@]34CCN(CC5CC5)[C@H](Cc5ccc(O)cc53)[C@]4(O)CC2)nc1C(F)(F)F [Example 163, 1-((5aS,6R,11bR)-14-(cyclopropylmethyl)-5a,10-dihydroxy-1,2,5,5a,6,7-hexahydro-6,11b-(epiminoethano)naphtho[1,2-d]azepin-3(4H)-yl)-2-(4-methyl-3-(trifluoromethyl)-1H-pyrazol-1-yl)ethan-1-one]	0.076
Cc1cn(CCN2CC[C@]34CCN(CC5CC5)[C@H](Cc5ccc(O)cc53)[C@]4(O)CC2)nc1C(F)(F)F [Example 164, (5aS,6R,11bS)-14-(cyclopropylmethyl)-3-(2-(4-methyl-3-(trifluoromethyl)-1H-pyrazol-1-yl)ethyl)-2,3,4,5,6,7-hexahydro-6,11b-(epiminoethano)naphtho[1,2-d]azepine-5a,10(1H)-diol]	0.26
CC(C)c1cn(CC(=O)N2CC[C@]34CCN(CC5CC5)[C@H](Cc5ccc(O)cc53)[C@]4(O)CC2)nn1 [Example 165, 1-((5aS,6R,11bR)-14-(cyclopropylmethyl)-5a,10-dihydroxy-1,2,5,5a,6,7-hexahydro-6,11b-(epiminoethano)naphtho[1,2-d]azepin-3(4H)-yl)-2-(4-isopropyl-1H-1,2,3-triazol-1-yl)ethan-1-one]	0.28
Cc1ccn(CCN2CC[C@]34CCN(CC5CC5)[C@H](Cc5ccc(O)cc53)[C@]4(O)CC2)c1 [Example 166, (5aS,6R,11bS)-14-(cyclopropylmethyl)-3-(2-(3-methyl-1H-pyrrol-1-yl)ethyl)-2,3,4,5,6,7-hexahydro-6,11b-(epiminoethano)naphtho[1,2-d]azepine-5a,10(1H)-diol]	0.31
